Test results published in PMC6407913, “DREADD Agonist 21 Is an Effective Agonist for Muscarinic-Based DREADDs in Vitro and in Vivo” (ACS Pharmacology & Translational Science, 2018).
“And” between values parts separate entries of the source, which are not always exact repeats. Equal entries are not always repeated. Where two headings read alike, the source gives them in different places.

Columns and labels:
Alpha2C = biological target: T1, Alpha2C (Homo sapiens, UniProt P18825); assay: NIMH PDSP radioligand binding, membranes
T1 construct: NIMH PDSP
T1 sequence (P18825 whole entry): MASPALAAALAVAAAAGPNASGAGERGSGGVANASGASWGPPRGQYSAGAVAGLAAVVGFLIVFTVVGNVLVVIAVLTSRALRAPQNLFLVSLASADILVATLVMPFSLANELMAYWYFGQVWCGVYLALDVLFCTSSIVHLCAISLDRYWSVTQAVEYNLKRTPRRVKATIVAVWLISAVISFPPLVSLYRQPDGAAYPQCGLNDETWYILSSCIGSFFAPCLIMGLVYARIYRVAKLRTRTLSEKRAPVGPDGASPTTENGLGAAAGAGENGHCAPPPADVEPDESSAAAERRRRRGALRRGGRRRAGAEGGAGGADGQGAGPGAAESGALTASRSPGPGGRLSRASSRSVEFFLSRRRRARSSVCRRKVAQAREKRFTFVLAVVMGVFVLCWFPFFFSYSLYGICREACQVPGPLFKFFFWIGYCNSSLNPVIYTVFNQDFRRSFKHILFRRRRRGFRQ
Method: (§1) Radioligand binding assays with membrane preparations to determine binding affinity were carried out as outlined before[540] and by the National Institute of Mental Health’s Psychoactive Drug Screening Program (NIMH PDSP) (https://pdsp.unc.edu/), Contract # HHSN-271–2013–00017-C. The NIMH PDSP is Directed by B.L.R. at the University of North Carolina at Chapel Hill, Chapel Hill, NC, and Project Officer Jamie Driscoll at NIMH, Bethesda, MD.

5-HT1E = 5-HT1E (Homo sapiens, UniProt P28566); assay: NIMH PDSP radioligand binding, membranes
Sequence of 5-HT1E (P28566 whole entry, species assumed): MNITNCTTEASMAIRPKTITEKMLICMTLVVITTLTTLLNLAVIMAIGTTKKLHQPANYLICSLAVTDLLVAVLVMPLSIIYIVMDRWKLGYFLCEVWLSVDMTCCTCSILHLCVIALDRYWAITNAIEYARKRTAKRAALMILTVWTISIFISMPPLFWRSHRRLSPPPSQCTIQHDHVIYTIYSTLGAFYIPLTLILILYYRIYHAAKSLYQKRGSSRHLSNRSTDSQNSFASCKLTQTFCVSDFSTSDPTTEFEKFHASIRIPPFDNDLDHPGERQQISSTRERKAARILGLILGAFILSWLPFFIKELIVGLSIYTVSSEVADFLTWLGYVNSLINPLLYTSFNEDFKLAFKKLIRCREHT
Method: as §1

D5 = D5 (Homo sapiens, UniProt P21918); assay: NIMH PDSP radioligand binding, membranes
Sequence of D5 (P21918 whole entry): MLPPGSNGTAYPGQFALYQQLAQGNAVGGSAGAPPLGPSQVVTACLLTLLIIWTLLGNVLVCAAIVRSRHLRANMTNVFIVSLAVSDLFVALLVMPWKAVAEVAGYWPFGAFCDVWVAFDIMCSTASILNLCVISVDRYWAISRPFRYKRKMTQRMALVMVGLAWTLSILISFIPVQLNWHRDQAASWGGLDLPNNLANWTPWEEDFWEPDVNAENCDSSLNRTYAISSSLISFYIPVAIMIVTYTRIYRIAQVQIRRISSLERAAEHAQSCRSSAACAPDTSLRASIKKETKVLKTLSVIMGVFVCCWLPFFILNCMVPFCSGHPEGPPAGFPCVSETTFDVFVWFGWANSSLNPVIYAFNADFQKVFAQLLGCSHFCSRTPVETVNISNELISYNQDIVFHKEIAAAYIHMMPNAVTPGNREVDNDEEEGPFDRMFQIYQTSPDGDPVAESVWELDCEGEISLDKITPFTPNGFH
Method: as §1

M3 = M3 (Homo sapiens, UniProt P20309); assay: NIMH PDSP radioligand binding, membranes
Sequence of M3 (P20309 whole entry): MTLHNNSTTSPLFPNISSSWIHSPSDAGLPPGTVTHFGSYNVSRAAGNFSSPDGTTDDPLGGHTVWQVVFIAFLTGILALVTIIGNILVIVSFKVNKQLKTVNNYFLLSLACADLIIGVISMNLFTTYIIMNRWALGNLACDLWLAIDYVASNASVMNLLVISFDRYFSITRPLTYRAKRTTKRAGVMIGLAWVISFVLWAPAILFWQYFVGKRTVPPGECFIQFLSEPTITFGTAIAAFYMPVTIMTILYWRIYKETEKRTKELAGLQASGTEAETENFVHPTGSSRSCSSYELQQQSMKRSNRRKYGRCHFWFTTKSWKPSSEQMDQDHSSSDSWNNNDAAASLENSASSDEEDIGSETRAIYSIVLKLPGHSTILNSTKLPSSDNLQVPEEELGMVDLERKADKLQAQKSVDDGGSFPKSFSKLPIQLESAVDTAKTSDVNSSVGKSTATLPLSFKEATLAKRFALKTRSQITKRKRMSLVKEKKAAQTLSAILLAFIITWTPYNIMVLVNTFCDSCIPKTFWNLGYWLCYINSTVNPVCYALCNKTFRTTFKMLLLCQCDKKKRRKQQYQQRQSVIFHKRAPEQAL
Method: as §1

Beta3 = biological target: T2, Beta3 (Homo sapiens, UniProt P13945); assay: NIMH PDSP radioligand binding, membranes
T2 construct: NIMH PDSP
Method: as §1

D4 = D4 (Homo sapiens, UniProt P21917); assay: NIMH PDSP radioligand binding, membranes
Sequence of D4 (P21917 whole entry): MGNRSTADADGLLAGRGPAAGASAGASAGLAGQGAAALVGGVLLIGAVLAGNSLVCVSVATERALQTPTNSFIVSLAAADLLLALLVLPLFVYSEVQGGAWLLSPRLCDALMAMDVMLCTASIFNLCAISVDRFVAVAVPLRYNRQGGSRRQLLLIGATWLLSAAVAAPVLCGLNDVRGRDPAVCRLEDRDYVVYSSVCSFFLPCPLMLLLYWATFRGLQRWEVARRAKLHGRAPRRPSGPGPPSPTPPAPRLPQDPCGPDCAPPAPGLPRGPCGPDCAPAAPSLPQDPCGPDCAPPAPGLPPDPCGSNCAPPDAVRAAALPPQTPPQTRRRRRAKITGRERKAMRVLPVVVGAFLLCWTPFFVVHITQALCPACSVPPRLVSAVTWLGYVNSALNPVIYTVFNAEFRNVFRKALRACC
Method: as §1

MOR = MOR (Homo sapiens, UniProt P35372); assay: NIMH PDSP radioligand binding, membranes
Sequence of MOR (P35372 whole entry): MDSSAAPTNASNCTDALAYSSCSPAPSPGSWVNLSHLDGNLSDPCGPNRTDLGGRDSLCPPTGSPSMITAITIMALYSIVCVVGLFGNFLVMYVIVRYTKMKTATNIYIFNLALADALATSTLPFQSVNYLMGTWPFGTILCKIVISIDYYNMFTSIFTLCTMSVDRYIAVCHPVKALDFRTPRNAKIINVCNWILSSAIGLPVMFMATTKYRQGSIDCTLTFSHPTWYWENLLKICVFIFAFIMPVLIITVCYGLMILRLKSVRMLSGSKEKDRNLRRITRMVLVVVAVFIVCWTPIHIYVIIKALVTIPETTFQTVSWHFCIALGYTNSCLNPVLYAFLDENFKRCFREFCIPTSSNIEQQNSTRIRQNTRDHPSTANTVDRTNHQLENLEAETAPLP
Method: as §1

Beta1 = biological target: T3, Beta1 (Homo sapiens, UniProt P08588); assay: NIMH PDSP radioligand binding, membranes
T3 construct: NIMH PDSP
Method: as §1

5-HT4 = biological target: T4, 5-HT4 (Homo sapiens, UniProt Q13639); assay: NIMH PDSP radioligand binding, membranes
T4 construct: NIMH PDSP
T4 sequence (Q13639 whole entry, species assumed): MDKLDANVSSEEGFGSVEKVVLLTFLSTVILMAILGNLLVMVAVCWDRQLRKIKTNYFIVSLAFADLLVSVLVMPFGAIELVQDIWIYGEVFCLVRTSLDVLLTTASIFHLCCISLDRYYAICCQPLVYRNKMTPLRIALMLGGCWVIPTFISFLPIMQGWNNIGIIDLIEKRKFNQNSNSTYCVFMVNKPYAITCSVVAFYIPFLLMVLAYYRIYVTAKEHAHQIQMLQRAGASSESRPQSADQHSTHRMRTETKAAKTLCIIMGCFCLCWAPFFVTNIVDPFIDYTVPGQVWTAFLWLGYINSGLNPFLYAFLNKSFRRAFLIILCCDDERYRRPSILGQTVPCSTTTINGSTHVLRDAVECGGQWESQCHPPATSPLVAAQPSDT
Method: as §1

BZP = assay: NIMH PDSP radioligand binding, membranes
Method: as §1

H4 = H4 (Homo sapiens, UniProt Q9H3N8); assay: NIMH PDSP radioligand binding, membranes
Sequence of H4 (Q9H3N8 whole entry): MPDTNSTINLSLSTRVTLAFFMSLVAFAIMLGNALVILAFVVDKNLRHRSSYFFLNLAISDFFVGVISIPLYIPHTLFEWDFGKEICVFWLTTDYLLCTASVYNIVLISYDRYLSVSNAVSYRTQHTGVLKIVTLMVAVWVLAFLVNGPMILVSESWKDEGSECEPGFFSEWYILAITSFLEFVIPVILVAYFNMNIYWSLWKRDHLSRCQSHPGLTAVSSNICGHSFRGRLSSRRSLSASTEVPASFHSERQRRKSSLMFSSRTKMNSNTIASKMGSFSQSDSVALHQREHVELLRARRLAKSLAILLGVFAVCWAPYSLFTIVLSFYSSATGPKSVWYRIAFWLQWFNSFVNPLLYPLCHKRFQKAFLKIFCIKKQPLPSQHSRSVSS
Method: as §1

M1 = M1 (Homo sapiens, UniProt P11229); assay: NIMH PDSP radioligand binding, membranes
Sequence of M1 (P11229 whole entry): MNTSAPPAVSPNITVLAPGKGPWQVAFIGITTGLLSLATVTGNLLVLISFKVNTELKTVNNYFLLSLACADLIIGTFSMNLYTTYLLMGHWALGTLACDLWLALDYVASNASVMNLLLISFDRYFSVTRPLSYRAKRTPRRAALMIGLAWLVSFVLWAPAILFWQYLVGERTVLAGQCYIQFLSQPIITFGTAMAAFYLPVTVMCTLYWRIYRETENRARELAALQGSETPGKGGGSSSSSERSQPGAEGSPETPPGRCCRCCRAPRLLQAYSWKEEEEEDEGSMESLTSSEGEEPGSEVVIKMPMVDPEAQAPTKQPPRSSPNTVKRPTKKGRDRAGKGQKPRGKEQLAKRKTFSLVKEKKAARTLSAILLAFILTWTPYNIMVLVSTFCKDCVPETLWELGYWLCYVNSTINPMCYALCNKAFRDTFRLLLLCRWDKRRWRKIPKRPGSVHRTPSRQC
Method: as §1

5-HT2B = 5-HT2B (Homo sapiens, UniProt P41595); assay: NIMH PDSP radioligand binding, membranes
Sequence of 5-HT2B (P41595 whole entry, species assumed): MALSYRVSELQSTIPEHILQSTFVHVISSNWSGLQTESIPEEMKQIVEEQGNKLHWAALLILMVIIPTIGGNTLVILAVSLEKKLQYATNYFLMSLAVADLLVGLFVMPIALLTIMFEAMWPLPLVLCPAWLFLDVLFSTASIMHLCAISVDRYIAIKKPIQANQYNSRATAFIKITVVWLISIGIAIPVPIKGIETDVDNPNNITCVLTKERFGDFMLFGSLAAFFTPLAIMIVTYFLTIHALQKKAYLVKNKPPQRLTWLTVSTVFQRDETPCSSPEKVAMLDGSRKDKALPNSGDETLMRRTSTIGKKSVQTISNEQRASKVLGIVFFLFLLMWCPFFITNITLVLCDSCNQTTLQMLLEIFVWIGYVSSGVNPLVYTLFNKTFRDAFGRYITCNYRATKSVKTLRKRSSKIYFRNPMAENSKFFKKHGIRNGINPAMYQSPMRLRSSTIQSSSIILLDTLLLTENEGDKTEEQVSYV
Method: as §1

H2 = H2 (Homo sapiens, UniProt P25021); assay: NIMH PDSP radioligand binding, membranes
Sequence of H2 (P25021 whole entry): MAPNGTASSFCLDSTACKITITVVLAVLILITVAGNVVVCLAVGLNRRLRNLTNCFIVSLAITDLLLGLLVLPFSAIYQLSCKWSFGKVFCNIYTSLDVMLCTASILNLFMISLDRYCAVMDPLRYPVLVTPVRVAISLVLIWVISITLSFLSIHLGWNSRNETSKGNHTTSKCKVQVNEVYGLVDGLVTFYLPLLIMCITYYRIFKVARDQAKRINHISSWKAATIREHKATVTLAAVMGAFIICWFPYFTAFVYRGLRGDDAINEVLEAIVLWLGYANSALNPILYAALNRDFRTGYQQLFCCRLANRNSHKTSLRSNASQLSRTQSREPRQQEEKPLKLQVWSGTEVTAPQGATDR
Method: as §1

5-HT2C = biological target: T5, 5-HT2C (Homo sapiens, UniProt P28335); assay: NIMH PDSP radioligand binding, membranes
T5 sequence (P28335 33-458): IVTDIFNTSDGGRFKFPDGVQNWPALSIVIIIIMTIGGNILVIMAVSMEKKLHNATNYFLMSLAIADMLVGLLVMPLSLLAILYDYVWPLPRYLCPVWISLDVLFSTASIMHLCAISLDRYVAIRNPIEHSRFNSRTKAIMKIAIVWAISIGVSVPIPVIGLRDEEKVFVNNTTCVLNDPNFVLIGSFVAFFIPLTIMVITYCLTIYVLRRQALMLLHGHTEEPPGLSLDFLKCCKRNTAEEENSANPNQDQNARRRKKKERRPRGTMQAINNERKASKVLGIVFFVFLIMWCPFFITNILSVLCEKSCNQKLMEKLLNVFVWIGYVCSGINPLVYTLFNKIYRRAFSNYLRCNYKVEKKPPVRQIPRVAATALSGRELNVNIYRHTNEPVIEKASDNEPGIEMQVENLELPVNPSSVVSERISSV
Method: as §1

hM3Dq = biological target: T6, hM3Dq (Homo sapiens, UniProt P20309, A239G/Y149C); assay: Gq-mediated calcium release (FLIPR) assay; assay type: cell-based; settings: CHO cells, mean ± SEM, read-out: pEC50 calcium mobilization (converted)
T6 construct: expressed in transfected cells
T6 sequence (P20309 whole entry Y149C/A239G): as the sequence (P20309 whole entry) above, with Y149C, A239G counted along it

hM1Dq [1] = biological target: T7, hM1Dq (Homo sapiens, UniProt P11229, A196G/Y106C); assay: ERK1/2 phosphorylation (pERK1/2) assay
T7 sequence (P11229 1-460 Y106C/A196G): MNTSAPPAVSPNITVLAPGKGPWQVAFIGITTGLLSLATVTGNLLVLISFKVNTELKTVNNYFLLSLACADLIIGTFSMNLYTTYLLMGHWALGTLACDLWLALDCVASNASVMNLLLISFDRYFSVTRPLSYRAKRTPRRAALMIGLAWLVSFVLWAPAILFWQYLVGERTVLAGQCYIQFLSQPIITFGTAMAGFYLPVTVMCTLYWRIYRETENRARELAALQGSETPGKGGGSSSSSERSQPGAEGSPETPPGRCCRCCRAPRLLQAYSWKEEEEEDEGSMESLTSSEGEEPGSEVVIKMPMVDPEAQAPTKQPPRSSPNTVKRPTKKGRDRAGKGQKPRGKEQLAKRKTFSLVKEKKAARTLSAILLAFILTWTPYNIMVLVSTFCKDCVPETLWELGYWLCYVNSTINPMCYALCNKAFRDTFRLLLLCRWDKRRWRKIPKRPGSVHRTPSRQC

hM1Dq [2] = biological target: T7, hM1Dq; assay: whole-cell [3H]NMS competition binding
dopamine D1 receptors = dopamine D1 receptors (Homo sapiens, UniProt P21728); assay: cAMP signaling concentration-response, agonist mode; assay type: cell-based
Method: HEK293 T cells were used for transient transfections and Gi mediated cAMP production assays. Assays were performed according to published procedures (PMID25895059, PRESTO-Tango paper). More detailed assay protocols are available at NIMH PDSP Web site (http://pdspdb.unc.edu/pdspWeb/?site=assays).
HEK293T cells in 10 cm plates were transfected with 4 μg of Glosensor and 4 μg of DNA encoding the human dopamine D1 receptor. The next day, cells were harvested and plated in polylysine-coated 384-well plates (Greiner) at a density of 20 000 cells/well in DMEM containing 1% dFBS. The next day, media was aspirated from each well and replaced with 20 μL of assay buffer containing 4 mM luciferin. Then, 10 μL of drugs were added 30 min later, and plates were read after 15 min.

[3] = read-out: Ki #1-#5 (individual assays)
[4] = read-out: pKi (mean) (converted)
[5] = read-out: log Ki (individual assays) (converted)

c1ccc2c(c1)N=C(N1CCNCC1)c1ccccc1N2 [C21, 11-(1-piperazinyl)-5H-dibenzo[b,e][1,4]diazepine]
Ki (Alpha2C; read-out: Ki): 1690 nM
Ki (Alpha2C; [3]): 1860 nM and 936 nM and 2770 nM
Ki (5-HT1E; read-out: Ki): 206 nM
Ki (5-HT1E; [3]): 325 nM and 263 nM and 68 nM and 117 nM and 547 nM
Ki (D5; read-out: Ki): 2900 nM
Ki (D5; [3]): 4110 nM and 1650 nM and 3620 nM
Ki (M3; read-out: Ki): 270 nM
Ki (M3; [3]): 144 nM and 485 nM and 281 nM
Ki (Beta3; read-out: Ki): > 10000 nM
Ki (Beta3; [3]): > 10000 nM
Ki (D4; read-out: Ki): 2050 nM
Ki (D4; [3]): 1380 nM and 896 nM and 4050 nM and 3570 nM
Ki (MOR; read-out: Ki): 3880 nM
Ki (MOR; [3]): 2230 nM and 4820 nM and 5430 nM
Ki (Beta1; read-out: Ki): > 10000 nM
Ki (Beta1; [3]): > 10000 nM
Ki (5-HT4; read-out: Ki): > 10000 nM
Ki (5-HT4; [3]): > 10000 nM
log Ki (individual assays) (BZP): 5.27 and 5.61 and 5.12 and 5.10 and 5.33
pKi (mean) (BZP): 5.29
Ki (BZP; read-out: Ki): 5180 nM
Ki (BZP; [3]): 4720 nM and 5310 nM and 2440 nM and 7610 nM and 7980 nM
Ki (H4; read-out: Ki): > 10000 nM
Ki (H4; [3]): > 10000 nM
Ki (H4; [4]): > 10000 nM
Ki (M1; read-out: Ki): 548 nM
Ki (M1; [3]): 693 nM and 303 nM and 785 nM
Ki (5-HT2B; read-out: Ki): 32.7 nM
Ki (5-HT2B; [5]): 26.9 nM and 38 nM and 28.2 nM and 39.8 nM
Ki (5-HT2B; [4]): 33.1 nM
Ki (H2; read-out: Ki): 289 nM
Ki (H2; [3]): 257 nM and 511 nM and 184 nM
Ki (5-HT2C; read-out: Ki): 47.9 nM
Ki (5-HT2C; [3]): 48.2 nM and 57 nM
Ki (5-HT2C; [5]): 39.8 nM
EC50 (hM3Dq): 3.31 nM
EC50 (hM1Dq [1]): 288 nM
Ki (hM1Dq [2]): 63.1 nM
higher binding affinity at hM1Dq than at wildtype hM1 (hM1Dq [2]; hM1Dq vs hM1): > 10 fold
agonist activity, follow-up concentration-response (cAMP) (dopamine D1 receptors): minimal activity
